Marks after values point to notes of the source that are not given here.
How the values were obtained:
L1210 cells [1] = experiment: In vitro cellular uptake of photosensitizer formulations; assay type: cell-based; details: 3 μg/ml, DMEM 10% FBS, B-B3 in P123 copolymer, BPD-MA liposomal
Protocol: The protocol for setting up the cell cultures and conditions for the cellular assay essentially followed Richter et al. (Proc. SPIE, 2078: 293-304, September 1993). L1210 cells in DMEM and 10% FBS (single experiment, 3 sets) were incubated with the formulations at a concentration of 3 μg/ml and examined for uptake in the cells over time. Cells were recovered by centrifugation, the pellet briefly rinsed, and the cells lysed by freeze thawing in the presence of 2% Triton X-100®. An equal volume of methanol was added and fluorescence was read at 694 nm (λex 440 nm).

[2] = Optimization of B-B3 incorporation in 10% w/v P123; assay type: physicochemical
Protocol: Using formulation methods described in Example 5, the aim was to incorporate 2 mg/ml of B-B3 into 10% w/v P123. It was shown by this method that the B-B3 can typically be incorporated at ˜1.8 mg/ml drug (based on absorbance readings and a molar extinction coefficient of 30425) 24 h post-hydration. This translates to approximately 10% drug loss. Unincorporated drug undergoes aggregation in aqueous solutions, and is characterized by the appearance of a 730 nm absorbance peak. Although the formulations can be made completely aggregate free by centrifugation or sterile filtration through 0.2 μm filters, this adds another step in the manufacturing process, which can be avoided by increasing the copolymer:drug ratio.

[3] = Drug loading attainable in 10% P123 (summary); assay type: physicochemical
Protocol: In the Example section below, formulation of the following A-ring compounds: BPD-MA, A-EA6, A-B3; B-ring compounds; B-EA6, and B-B3; and other photosensitizers such as dihydroxychlorins and pyropheophorbides, with P123 illustrate the versatility of this particular block copolymer. This includes A-ring compounds such as BPD-MA where block copolymers could be used to formulate an alternative product to a concentration as high as 4 mg/ml in 10% P123, and also A-EA6 and A-B3, all of which formulate very readily. B-ring compounds have lower drug loading characteristics, but concentrations of approximately 1.8 mg/ml are typical for B-B3, and lower for B-EA6. A wide range of other compounds e.g. pyropheophorbides and various dihydroxychlorins also formulate with ease to give final formulations at 2 mg/ml in 10% P123 in non-optimized systems. Therefore both the drug loading, and stability could be improved further by adjustments to composition, pH, and/or methodology of formulation.

[4] = Drug loading of liposomal versus 10% P123 formulations; assay type: physicochemical; details: prepared at 2 mg/ml
Protocol: 5 mg drug and lipids (40% EPG in DMPC) are combined in CH2Cl2 at a drug to lipid ratio of 1:10 w/w in 250 ml round bottom flask. The maximum concentration of drug in solvent is 2 mg/ml. CH2Cl2 is removed rapidly as described in Example 5. The resulting thin film is hydrated with 2.5 ml lactose solution (9.5% w/v) using hand swirling with glass beads at 40° C. Extrusion using Model 4T (Lipex Biomembranes Inc. B.C., Canada) is carried out with the thermostat set at 40° C. The multilamellar vesicles (MLVs) arising from hydration steps of the liposomal formulation were also examined under the microscope. MLVs are successively extruded 5 times through each of the 400 nm, 200 nm and 100 nm polycarbonate membranes (Nuclepore PC, Costar). Extruded samples were diluted 1:100 in PBS (pH 7.4) and the absorbance determined at 690 nm wavelength.
In this experiment liposomal and block copolymer (micellar) photosensitizer formulations of A- and B-ring compounds of EA6 and B3 were compared. Each of the photosensitizer samples was prepared at a final drug concentration of 2 mg/ml. The block copolymer P123, and the liposomal formulations were prepared as described in the Examples 5 and 6, respectively.

[5] = system: M1 rhabdomyosarcoma tumor; experiment: PDT tumor recurrence in tumor mouse model; assay type: in vivo, DBA/2 mouse
Protocol: Photosensitizer formulations were prepared in 10% w/v Pluronics as described in Example 4. BPD-MA was formulated in F127. B-ring compounds B-EA6 and B-B3, were prepared in P123 due to insufficient drug loading in F127. Liposomal BPD-MA formulation was Verteporfin™ and B-ring compounds were formulated in the same lipid composition. Where DMSO/plasma preparations were made, the DMSO dissolved drug was added directly to mouse plasma and the drug association with different plasma components was observed.
In these experiments the tumor model used was the DBA/2 mouse (males) inoculated intradermally with M1 rhabdomyosarcoma tumor cells (M1, ATCC. When tumors reached a diameter of 4-6 mm, the mice (n=10, unless other wise stated) were treated with photodynamic therapy (PDT). PDT involved intravenous injection of the formulated drug in 0.2 mL volume of PBS. This was followed by exposure of the tumor region to laser light (Argon pumped dye laser (5W), 690 nm, 50J/cm2) 15 min later. Animals were then monitored for tumor recurrence over a 20 day period post treatment.

L1210 cells [6] = experiment: In vitro phototoxicity (MTT assay after light exposure); assay type: cell-based
Protocol: Exposure to drugs was carried out in the presence and absence of fetal calf serum (FCS) as a model to study transfer of drug to cells in vivo. […] A suspension of L1210 cells was prepared and exposed to various drug formulations (drug concentrations ranging from 0-50 ng/ml) either in the absence or presence of 10% fetal calf serum (FCS). One hour later, the drug was removed by pelleting the cells by centrifugation. The pellet was briefly washed with 1 ml DME and resuspended in 5% FCS/DME. 100 μl of the cell suspension was aliquoted into 6 wells of a 96 well plate, and the plate exposed to light at 10 J/cm^2. Viability was determined 24 h post exposure using the MTT assay (Mosmann, J. Immunol. Meth. 65:55-63, 1983).

[7] = Liposomal, 1.0 mg/kg i.v., 690 nm 50J/cm2 15 min later, Day 7
[8] = Carrier Liposomal, −FCS, 1 h drug, light 10 J/cm^2, MTT 24 h

C=Cc1c(C)c2cc3nc(cc4[nH]c(cc5nc(cc1[nH]2)C1(C)C5=CC=C(C(=O)O)C1C(=O)OC)c(C)c4CCC(=O)OC)C(CCC(=O)OC)=C3C (stereo not drawn) [B-B3]
Incubation time to 50% uptake level (L1210 cells [1]): close to ‘zero’ incubation time | Incubation time to peak / saturation of uptake (L1210 cells [1]): around 20 min | Drug loss ([2]; 2 mg/ml added): approximately 10% | Drug incorporated ([2]; 2 mg/ml added, 24 h post-hydration): ~1.8 mg/mL | Drug incorporation ([2]; final drug concentration 1 mg/ml): complete incorporation of all added drug | Formulated drug concentration [3]: approximately 1.8 mg/ml | Drug loading, P123 ([4]; Pluronic P123 10% weight/volume): 1.24 mg/mL | Drug loading, Liposome ([4]; liposomal formulation): Very low | Percent (%) Mice Tumor Free [5, 7]: 0^2% | Percent (%) Mice Tumor Free ([5]; Pluronic P123, 1.0 mg/kg, Day 7): 100% | Percent (%) Mice Tumor Free ([5]; Pluronic P123, 1.0 mg/kg, Day 14): 80% | Percent (%) Mice Tumor Free ([5]; Pluronic P123, 1.0 mg/kg, Day 20): 60% | Percent (%) Mice Tumor Free ([5]; Pluronic P123, 1.2 mg/kg, Day 7, n = 3): 100^3% | Percent (%) Mice Tumor Free ([5]; Pluronic P123, 1.2 mg/kg, Day 14, n = 3): 67^3% | Percent (%) Mice Tumor Free ([5]; Pluronic P123, 1.2 mg/kg, Day 20, n = 3): 67^3% | Percent (%) Mice Tumor Free ([5]; Pluronic P123, 1.25 mg/kg, Day 7): 100% | Percent (%) Mice Tumor Free ([5]; Pluronic P123, 1.25 mg/kg, Day 14): 100% | Percent (%) Mice Tumor Free ([5]; Pluronic P123, 1.25 mg/kg, Day 20): 80% | PDT efficacy in tumor model ([5]; plasma /DMSO preparation): completely ineffective | LD50 (L1210 cells [6]; Carrier Copolymer (P123), +FCS (10%)): 16.6* ng/ml | LD50 (L1210 cells [6]; Carrier Copolymer (P123), −FCS): 0.68* ng/ml | LD50 (L1210 cells [6]; Carrier DMSO, +FCS (10%)): 37.0 ng/mL | LD50 (L1210 cells [6]; Carrier DMSO, −FCS): 7.2 ng/mL | LD50 (L1210 cells [6]; Carrier Liposomal, +FCS (10%)): 30.0 ng/mL | LD50 (L1210 cells [6]; [8]): 3.0 ng/mL

C=Cc1c(C)c2cc3nc(cc4[nH]c(cc5nc(cc1[nH]2)C(C)=C5CCC(=O)O)c(CCC(=O)OC)c4C)[C@@]1(C)C3=CC=C(C(=O)OC)[C@H]1C(=O)OC [BPD-MA, benzoporphyrin derivative mono-acid-ring A, reference compound]
Incubation time to 50% uptake level (L1210 cells [1]): approximately 5 min | Incubation time to peak / saturation of uptake (L1210 cells [1]): 30 min | Formulated drug concentration [3]: ≤ 4 mg/mL | Percent (%) Mice Tumor Free [5, 7]: 100% | Percent (%) Mice Tumor Free ([5]; Liposomal, 1.0 mg/kg, Day 14): 100% | Percent (%) Mice Tumor Free ([5]; Liposomal, 1.0 mg/kg, Day 20): 30% | Percent (%) Mice Tumor Free ([5]; Pluronic F127, 1.0 mg/kg, Day 7): 100% | Percent (%) Mice Tumor Free ([5]; Pluronic F127, 1.0 mg/kg, Day 14): 60% | Percent (%) Mice Tumor Free ([5]; Pluronic F127, 1.0 mg/kg, Day 20): 60% | LD50 (L1210 cells [6]; Carrier Liposomal, +FCS (10%)): 38.0 ng/mL | LD50 (L1210 cells [6]; [8]): 4.0 ng/mL

Source: US7282215B2, “Supports for photosensitizer formulations” (The University of British Columbia, priority 2000, dated 2007)
